Test results as given in PubChem BioAssay AID1918930 (Molecular Pharmacology Branch, DTP, NCI, 2023).

Tested on: 233499-124-R-J3-PDC complex spheroid viability, % test/control
Test: Anticancer human tumor 233499-124-R-J3-PDC patient-derived colon adenocarcinoma cell line growth inhibition
Conditions: for IC50: curve of first compound; for viability, T/C: stronger effect = lower value
How it was run: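 Drug combinations with the LSD1 inhibitor iadademstat tested on tumor cells co-cultured as spheroids with endothelial cells and mesenchymal stem cells. Concentrations descended in half-log increments from clinical Cmax or 10 microM.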

[1] = second compound 0.1 µM, first compound 0.00316 µM
[2] = second compound 0.1 µM, first compound 0.01 µM
[3] = second compound 0.1 µM, first compound 0.0316 µM
[4] = second compound 0.1 µM, first compound 0.1 µM
[5] = second compound 0.1 µM, first compound 0.316 µM
[6] = second compound 0.1 µM, first compound 1 µM
[7] = second compound 0.316 µM, first compound 0.00316 µM
[8] = second compound 0.316 µM, first compound 0.01 µM
[9] = second compound 0.316 µM, first compound 0.0316 µM
[10] = second compound 0.316 µM, first compound 0.1 µM
[11] = second compound 0.316 µM, first compound 0.316 µM
[12] = second compound 0.316 µM, first compound 1 µM
[13] = second compound 1 µM, first compound 0.00316 µM
[14] = second compound 1 µM, first compound 0.01 µM
[15] = second compound 1 µM, first compound 0.0316 µM
[16] = second compound 1 µM, first compound 0.1 µM
[17] = second compound 1 µM, first compound 0.316 µM
[18] = second compound 1 µM, first compound 1 µM
[19] = second compound 3.16 µM, first compound 0.00316 µM
[20] = second compound 3.16 µM, first compound 0.01 µM
[21] = second compound 3.16 µM, first compound 0.0316 µM
[22] = second compound 3.16 µM, first compound 0.1 µM
[23] = second compound 3.16 µM, first compound 0.316 µM
[24] = second compound 3.16 µM, first compound 1 µM
[25] = second compound 10 µM, first compound 0.00316 µM
[26] = second compound 10 µM, first compound 0.01 µM
[27] = second compound 10 µM, first compound 0.0316 µM
[28] = second compound 10 µM, first compound 0.1 µM
[29] = second compound 10 µM, first compound 0.316 µM
[30] = second compound 10 µM, first compound 1 µM
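Further: spheroids exposed to agents for one week before readout.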

## O=C(C=Cn1cnc(-c2cc(C(F)(F)F)cc(C(F)(F)F)c2)n1)NNc1cnccn1 + NC1CCC(NC2CC2c2ccccc2)CC1
Second compound 0.1 µM
  IC50: 102 nM
Second compound 0.316 µM
  IC50: 144 nM
Second compound 1 µM
  IC50: 84.6 nM
Second compound 3.16 µM
  IC50: 130 nM
Second compound 10 µM
  IC50: 84.6 nM
[1]
  viability, T/C: 106%
[2]
  viability, T/C: 102%
[3]
  viability, T/C: 99.5%
[4]
  viability, T/C: 49.5%
[5]
  viability, T/C: 31.1%
[6]
  viability, T/C: 19.8%
[7]
  viability, T/C: 119%
[8]
  viability, T/C: 109%
[9]
  viability, T/C: 97.4%
[10]
  viability, T/C: 59.2%
[11]
  viability, T/C: 28.2%
[12]
  viability, T/C: 11.7%
[13]
  viability, T/C: 115%
[14]
  viability, T/C: 106%
[15]
  viability, T/C: 106%
[16]
  viability, T/C: 40%
[17]
  viability, T/C: 30.9%
[18]
  viability, T/C: 12%
[19]
  viability, T/C: 99.3%
[20]
  viability, T/C: 90.8%
[21]
  viability, T/C: 91.8%
[22]
  viability, T/C: 54.9%
[23]
  viability, T/C: 27.8%
[24]
  viability, T/C: 14.2%
[25]
  viability, T/C: 96.8%
[26]
  viability, T/C: 97.3%
[27]
  viability, T/C: 87.3%
[28]
  viability, T/C: 43.2%
[29]
  viability, T/C: 22%
[30]
  viability, T/C: 15.8%

## Nc1ncn(C2CC(O)C(CO)O2)c(=O)n1 (stereo not given) + NC1CCC(NC2CC2c2ccccc2)CC1
Second compound 0.1 µM
  IC50: > 1000 nM
Second compound 0.316 µM
  IC50: > 1000 nM
Second compound 1 µM
  IC50: > 1000 nM
Second compound 3.16 µM
  IC50: > 1000 nM
Second compound 10 µM
  IC50: > 1000 nM
[1]
  viability, T/C: 77.1%
[2]
  viability, T/C: 83.9%
[3]
  viability, T/C: 83.8%
[4]
  viability, T/C: 69%
[5]
  viability, T/C: 110%
[6]
  viability, T/C: 111%
[7]
  viability, T/C: 92.6%
[8]
  viability, T/C: 96.8%
[9]
  viability, T/C: 87.2%
[10]
  viability, T/C: 86.8%
[11]
  viability, T/C: 98.8%
[12]
  viability, T/C: 77.6%
[13]
  viability, T/C: 89.3%
[14]
  viability, T/C: 75.2%
[15]
  viability, T/C: 74.8%
[16]
  viability, T/C: 72.5%
[17]
  viability, T/C: 85.1%
[18]
  viability, T/C: 94.8%
[19]
  viability, T/C: 82.9%
[20]
  viability, T/C: 72.2%
[21]
  viability, T/C: 73.6%
[22]
  viability, T/C: 82.6%
[23]
  viability, T/C: 55.8%
[24]
  viability, T/C: 101%
[25]
  viability, T/C: 74.2%
[26]
  viability, T/C: 71.2%
[27]
  viability, T/C: 68.7%
[28]
  viability, T/C: 65.8%
[29]
  viability, T/C: 73.1%
[30]
  viability, T/C: 82.1%

## CC(C)CC(NC(=O)C(Cc1ccccc1)NC(=O)c1cnccn1)B(O)O (stereo not given) + NC1CCC(NC2CC2c2ccccc2)CC1
Second compound 0.1 µM
  IC50: 2.62 nM
Second compound 0.316 µM
  IC50: 2.93 nM
Second compound 1 µM
  IC50: 2.18 nM
Second compound 3.16 µM
  IC50: 1.95 nM
Second compound 10 µM
  IC50: 2.83 nM
Second compound 0.1 µM, first compound 0.000316 µM
  viability, T/C: 105%
Second compound 0.1 µM, first compound 0.001 µM
  viability, T/C: 114%
[1]
  viability, T/C: 38.4%
[2]
  viability, T/C: 0.08%
[3]
  viability, T/C: 1.9%
[4]
  viability, T/C: 2.95%
Second compound 0.316 µM, first compound 0.000316 µM
  viability, T/C: 110%
Second compound 0.316 µM, first compound 0.001 µM
  viability, T/C: 107%
[7]
  viability, T/C: 46%
[8]
  viability, T/C: 0.06%
[9]
  viability, T/C: 0.03%
[10]
  viability, T/C: 1.83%
Second compound 1 µM, first compound 0.000316 µM
  viability, T/C: 109%
Second compound 1 µM, first compound 0.001 µM
  viability, T/C: 100%
[13]
  viability, T/C: 25.9%
[14]
  viability, T/C: 0.26%
[15]
  viability, T/C: 3.69%
[16]
  viability, T/C: 3.26%
Second compound 3.16 µM, first compound 0.000316 µM
  viability, T/C: 90.9%
Second compound 3.16 µM, first compound 0.001 µM
  viability, T/C: 94.5%
[19]
  viability, T/C: 19.2%
[20]
  viability, T/C: 0.04%
[21]
  viability, T/C: 2.68%
[22]
  viability, T/C: 0.1%
Second compound 10 µM, first compound 0.000316 µM
  viability, T/C: 87.7%
Second compound 10 µM, first compound 0.001 µM
  viability, T/C: 80.8%
[25]
  viability, T/C: 46.9%
[26]
  viability, T/C: 0.13%
[27]
  viability, T/C: 0.6%
[28]
  viability, T/C: 0.18%

## O=C(C=Cn1cnc(-c2cc(C(F)(F)F)cc(C(F)(F)F)c2)n1)NNc1cnccn1 + NC1CC1c1ccc(-c2cccc(O)c2)cc1
Second compound 0.1 µM
  IC50: 821 nM
Second compound 0.316 µM
  IC50: 669 nM
Second compound 1 µM
  IC50: 805 nM
Second compound 3.16 µM
  IC50: 920 nM
Second compound 10 µM
  IC50: 557 nM
[1]
  viability, T/C: 102%
[2]
  viability, T/C: 83.9%
[3]
  viability, T/C: 95.7%
[4]
  viability, T/C: 101%
[5]
  viability, T/C: 77.6%
[6]
  viability, T/C: 44.3%
[7]
  viability, T/C: 91.8%
[8]
  viability, T/C: 104%
[9]
  viability, T/C: 97.2%
[10]
  viability, T/C: 81.2%
[11]
  viability, T/C: 73.5%
[12]
  viability, T/C: 38.2%
[13]
  viability, T/C: 67.3%
[14]
  viability, T/C: 78.9%
[15]
  viability, T/C: 90.9%
[16]
  viability, T/C: 101%
[17]
  viability, T/C: 67.3%
[18]
  viability, T/C: 46%
[19]
  viability, T/C: 84.1%
[20]
  viability, T/C: 102%
[21]
  viability, T/C: 83.5%
[22]
  viability, T/C: 94.3%
[23]
  viability, T/C: 72.5%
[24]
  viability, T/C: 48.2%
[25]
  viability, T/C: 73.5%
[26]
  viability, T/C: 83.1%
[27]
  viability, T/C: 78.2%
[28]
  viability, T/C: 81.9%
[29]
  viability, T/C: 61.7%
[30]
  viability, T/C: 38%
